{"source": "patent US7763617B2", "about": "“Pyrazolopyridine-4-yl pyridazinone derivatives and addition salts thereof, and PDE inhibitors comprising the same derivatives or salts as active ingredient” (Kyorin Pharmaceutical Co., Ltd., priority 2005, dated 2010)", "key": {"[1]": {"system": "isolated guinea pig tracheal smooth muscles", "experiment": "Relaxant effect on histamine-induced contraction of isolated guinea pig tracheal smooth muscles", "conditions": "Cavia porcellus; histamine 10^-5 mol/L contraction, relaxation as % of maximum response to papaverine 10^-4 mol/L; read-out: IC50(μmol/L), concentration required to 50% relaxation", "procedure": "Guinea pigs were exsanguinated and the trachea was immediately isolated and cut into 2 to 3 cartilage ring segments to prepare tracheal ring preparations. The tracheal rings were suspended in 10 mL of Tyrode's solution bubbled with a gaseous mixture of 95% O2+5% CO2 at 37° C. The composition of the Tyrode's solution (mM) was as follows: NaCl 136.9, KCl 2.7, CaCl2 1.8, MgCl2 1.0, NaH2PO4 0.4, NaHCO3 11.9 and Gucose 5.6. The contractile response was measured by an isometric transducer (UM-203, KISHIMOTO) and recorded on a recorder ([…] SERVOCORDER SR6221). After about 1 hour incubation with 1.5 g of resting tention, histamine (10^−5 mol/L) was added to induce the contractile response. After confirming the response, the preparations were washed with Tyrode's solution (10 mL×3). Then indomethacin (10^−5 mol/L) was applied and the preparations were equilibrated for at least 30 min under 1.5 g tension. Subsequently, histamine (10^−5 mol/L) was applied. After the contraction reached a steady state, each compound was added in a cumulative manner (10^−8 mol/L-3×10^−5 mol/L). Each compound was prepared as a 10^−1 mol/L solution in DMSO, which was diluted with distilled water for use. After addition of test compounds, papaverine (10^−4 mol/L) was added to determine the maximum relaxation of the preparation. Relaxant response of test compounds were expressed as a percentage of the maximum response to papaverine. IC50 was defined as a concentration of the compound required to 50% relaxation. DMSO was used as a control."}, "PDE4Bcat": {"molecular_target": "T1, PDE4Bcat (Homo sapiens, UniProt Q07343)", "T1 construct": "catalytic domain (indicated as “cat,” hereinafter), PDE4Bcat; made in house; host or cells: Sf9 insect cells (baculovirus, Bac-to-Bac)", "T1 sequence (Q07343 330-659 limits assumed)": "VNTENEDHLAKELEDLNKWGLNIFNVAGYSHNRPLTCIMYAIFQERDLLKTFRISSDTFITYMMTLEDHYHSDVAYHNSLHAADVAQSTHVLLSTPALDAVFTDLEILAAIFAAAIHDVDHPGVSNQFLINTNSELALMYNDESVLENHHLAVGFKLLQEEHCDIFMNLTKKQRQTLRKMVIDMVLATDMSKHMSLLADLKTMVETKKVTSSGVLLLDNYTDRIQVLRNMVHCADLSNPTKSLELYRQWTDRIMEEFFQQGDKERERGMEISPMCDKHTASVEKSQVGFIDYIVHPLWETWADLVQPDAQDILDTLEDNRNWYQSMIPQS", "experiment": "Inhibition of phosphodiesterase activity, [3H]-cAMP hydrolysis, recombinant PDE4Bcat", "type": "biochemical", "conditions": "cAMP 2 μmol/L, read-out: IC50(μmol/L) PDE4", "procedure": "(§1) RT-PCR was performed to isolate cDNA fragments of PDE3A catalytic domain (indicated as “cat,” hereinafter), PDE4Bcat, PDE5Acat and PDE10A1 from human RNA. Using Gateway system (Invitrogen) and Bac-to-Bac (registered trademark) Baculovirus Expression system (Invitrogen), the isolated cDNA fragments were transfected into Sf9 insect cells for expression of the PDE proteins. The recombinant PDE3Acat, PDE4Bcat, PDE5Acat and PDE10A1 proteins were isolated from culture supernatant or cell extracts of Sf9 cells expressed high levels of these proteins by ion-exchange chromatography and used for the following experiments.\n(§2) 4 mmol/L solution of each test compound was serially diluted 4-fold with 15% DMSO solution to prepare the solutions with concentrations of 15 nmol/L to 4 mmol/L (final concentrations=1.5 nmol/L-400 μmol/L). 10 μL of each test compound solution was added to each well of 96 plate with 10 μL of [^3H]-cAMP or [^3H]-cGMP solution, diluted with a buffer (40 mmol/L Tris-HCl (pH 7.4), 10 mmol/L MgCl2) to the concentration shown in Table 20 and 40 μL of each of the human recombinant PDE proteins in units shown in Table 20. The plate was incubated at 30° C. for 20 min, and then at 65° C. for 2 min. Subsequently, 25 μL of 1 mg/mL 5′-nucleotidase (Crotalus atrox venom, Sigma) was added to each well and the plate was incubated at 30° C. for 10 min. 200 μL of Dowex solution (300 mg/mL Dowex 1×8-400 (Sigma Aldrich), 33% ethanol) was then added to each well and the plate was shaken at 4° C. for 20 min. Subsequently, 200 μL of MicroScint 20 (Packard) was added to each well and the radioactivity of each sample was measured by a scintillation counter (Topcount, Packard) IC50 was calculated by GraphPad Prism v3.03 (GraphPad Software)."}, "[2]": {"system": "histamine-induced bronchoconstriction", "experiment": "Histamine-induced bronchoconstriction in guinea pigs", "type": "in vivo, guinea pig", "conditions": "Cavia porcellus, iv, 0.5 min, 30 seconds after administration, histamine 12.5 μg/kg i.v.; for inhibition in vivo at 1 mg/kg: test compound 1 mg/kg i.v.", "procedure": "Guinea pigs were anesthetized with pentobarbital (30 mg/kg, i.p.). A cannula for IV administeration, a cannula for collecting blood and measurement of blood pressure and a trachea cannula were inserted into the left exterior jugular vein, right interior carotid artery and trachea, respectively. The animals were placed under artificial respiration at 60 times/min and 10 mL/kg/stroke. The airflow through the branch of the tracheal cannula was measured by a bronchospasm transducer (Ugo-Basile) and recorded on a computer via Power Lab (ADInstruments Japan). The animals were immobilized with gallamine (10 mg/kg, i.v.), then administered histamine at 10-minute intervals (12.5 μg/kg, i.v.). […] To examine the inhibitory activity of test compound, the histamine-induced bronchoconstriction was measured after 30 seconds of drug administration. The bronchoconstriction was recorded as the change of the airflow: The results were shown by percentages of the maximum histamine-induced bronchoconstriction. Each test compound was prepared as a 10 mg/mL solution in DMSO. Gallamine was prepared as a 10 mg/mL solution in physiological saline. Histamine was prepared as a 1 mg/mL solution in physiological saline, which was diluted with physiological saline to 62.5 μg/mL for use."}, "PDE5Acat": {"molecular_target": "PDE5Acat (Homo sapiens, UniProt O76074)", "experiment": "Inhibition of phosphodiesterase activity, [3H]-cGMP hydrolysis, recombinant PDE5Acat", "type": "biochemical", "conditions": "cGMP 2 μmol/L, read-out: IC50(μmol/L) PDE5", "procedure": "as §1, §2"}, "[3]": {"molecular_target": "T2, PDE3A catalytic domain (PDE3Acat) (Homo sapiens, UniProt Q14432)", "T2 construct": "cDNA fragments of PDE3A catalytic domain (indicated as “cat,” hereinafter); made in house; host or cells: Sf9 insect cells (baculovirus, Bac-to-Bac)", "T2 sequence (Q14432 674-1093 limits assumed)": "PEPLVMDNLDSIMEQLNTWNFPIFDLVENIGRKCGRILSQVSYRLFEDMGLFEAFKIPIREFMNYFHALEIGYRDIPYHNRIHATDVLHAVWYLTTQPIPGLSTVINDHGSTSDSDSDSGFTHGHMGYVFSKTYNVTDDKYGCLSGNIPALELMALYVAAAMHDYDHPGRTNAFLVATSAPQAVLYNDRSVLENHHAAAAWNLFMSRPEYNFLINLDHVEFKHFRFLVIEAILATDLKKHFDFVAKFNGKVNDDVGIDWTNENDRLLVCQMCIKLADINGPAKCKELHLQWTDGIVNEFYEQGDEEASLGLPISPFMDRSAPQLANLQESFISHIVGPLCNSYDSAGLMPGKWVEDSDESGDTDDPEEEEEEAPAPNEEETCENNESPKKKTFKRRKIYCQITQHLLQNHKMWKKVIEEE", "experiment": "Inhibition of phosphodiesterase activity, [3H]-cAMP hydrolysis, recombinant PDE3Acat", "type": "biochemical", "conditions": "cAMP 2 μmol/L", "procedure": "as §1, §2"}, "PDE10A1": {"molecular_target": "T3, PDE10A1 (Homo sapiens, UniProt Q9Y233)", "T3 construct": "made in house; host or cells: Sf9 insect cells (baculovirus, Bac-to-Bac)", "T3 sequence (Q9Y233 1-779 isoform Q9Y233-1)": "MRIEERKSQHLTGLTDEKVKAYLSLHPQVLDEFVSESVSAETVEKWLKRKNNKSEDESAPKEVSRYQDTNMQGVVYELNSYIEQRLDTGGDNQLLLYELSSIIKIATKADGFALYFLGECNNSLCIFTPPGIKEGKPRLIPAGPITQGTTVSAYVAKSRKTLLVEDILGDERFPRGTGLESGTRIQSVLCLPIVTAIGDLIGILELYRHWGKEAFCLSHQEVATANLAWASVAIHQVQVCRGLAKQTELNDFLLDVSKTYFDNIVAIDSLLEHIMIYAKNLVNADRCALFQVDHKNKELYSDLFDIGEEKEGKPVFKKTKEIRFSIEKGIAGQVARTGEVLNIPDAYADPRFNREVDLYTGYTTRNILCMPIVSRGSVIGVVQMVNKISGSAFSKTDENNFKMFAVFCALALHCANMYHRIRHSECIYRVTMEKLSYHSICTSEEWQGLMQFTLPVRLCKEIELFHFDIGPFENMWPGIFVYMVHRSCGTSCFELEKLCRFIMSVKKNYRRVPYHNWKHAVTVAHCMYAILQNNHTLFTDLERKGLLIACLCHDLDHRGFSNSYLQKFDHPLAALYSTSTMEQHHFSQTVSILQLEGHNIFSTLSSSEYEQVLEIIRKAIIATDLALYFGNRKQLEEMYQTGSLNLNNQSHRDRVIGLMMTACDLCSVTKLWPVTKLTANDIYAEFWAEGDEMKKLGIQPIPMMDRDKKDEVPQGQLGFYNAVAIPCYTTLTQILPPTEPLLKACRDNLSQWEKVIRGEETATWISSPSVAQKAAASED", "experiment": "Inhibition of phosphodiesterase activity, [3H]-cAMP hydrolysis, recombinant PDE10A1", "type": "biochemical", "conditions": "human recombinant PDE10A1, cAMP 0.2 μmol/L; read-out: IC50(μmol/L) PDE10", "procedure": "as §1, §2"}, "[4]": {"conditions": "human recombinant PDE3Acat, read-out: IC50(μmol/L) PDE3"}}, "note": "Read-outs that look alike come from different tables or passages of the source."}
{"smiles": "CCc1cc2c(-c3n[nH]c(=O)cc3C)cccn2n1", "note": "[Example 305]", "values": [{"measurement": "melting point", "result": "229 to 231", "unit": "°C"}]}
{"smiles": "CCc1cc2c(C3=NNC(=O)CC3C)cc(Cl)cn2n1", "note": "(stereo not shown) [Example 311, 6-(6-chloro-2-ethyl-pyrazolo[1,5-a]pyridine-4-yl)-5-methyl-4,5-dihydro-3-(2H)-pyridazinone]", "values": [{"measurement": "IC50", "setting": "[1]", "result": 2, "unit": "µmol/L"}, {"measurement": "melting point", "result": "172 to 174", "unit": "°C"}]}
{"smiles": "COc1ccc(C2=NNC(=O)CC2C)c2cc(C(F)(F)F)nn12", "note": "(single isomer, unassigned; (+)) [Example 317, (+)-6-(7-methoxy-2-trifluoromethyl-pyrazolo[1,5-a]pyridine-4-yl)-5-methyl-4,5-dihydro-3-(2H)-pyridazinone]", "values": [{"measurement": "IC50", "setting": "PDE4Bcat", "result": "< 1", "unit": "µmol/L"}, {"measurement": "IC50", "setting": "[1]", "result": 0.127, "unit": "µmol/L"}, {"measurement": "inhibition in vivo at 0.1 mg/kg", "setting": "[2]; values in brackets: test compound 0.1 mg/kg, i.v.", "result": "≥ 90", "unit": "%"}, {"measurement": "IC50", "setting": "PDE5Acat", "result": "> 10", "unit": "µmol/L"}, {"measurement": "IC50", "setting": "[3]; [4]", "result": "0.1 to 1", "unit": "µmol/L"}, {"measurement": "IC50", "setting": "PDE10A1", "result": "1 to 10", "unit": "µmol/L"}]}
{"smiles": "CCc1cc2c(C3=NNC(=O)CC3C)cccn2n1", "note": "(stereo not shown) [Example 201]", "values": [{"measurement": "IC50", "setting": "PDE4Bcat", "result": "> 10", "unit": "µmol/L"}, {"measurement": "IC50", "setting": "[1]", "result": 0.93, "unit": "µmol/L"}, {"measurement": "inhibition in vivo at 1 mg/kg", "setting": "[2]", "result": "≥ 90", "unit": "%"}, {"measurement": "IC50", "setting": "PDE5Acat", "result": "> 10", "unit": "µmol/L"}, {"measurement": "IC50", "setting": "[3]; [4]", "result": "1 to 10", "unit": "µmol/L"}, {"measurement": "IC50", "setting": "PDE10A1", "result": "1 to 10", "unit": "µmol/L"}, {"measurement": "melting point", "result": "231 to 233", "unit": "°C"}]}
{"smiles": "CCc1cc2c(C3=NNC(=O)CC3C)ccc(OC)n2n1", "note": "(stereo not shown) [Example 216]", "values": [{"measurement": "IC50", "setting": "PDE4Bcat", "result": "0.1 to 1", "unit": "µmol/L"}, {"measurement": "IC50", "setting": "[1]", "result": 0.65, "unit": "µmol/L"}, {"measurement": "inhibition in vivo at 1 mg/kg", "setting": "[2]", "result": "≥ 90", "unit": "%"}, {"measurement": "IC50", "setting": "PDE5Acat", "result": "> 10", "unit": "µmol/L"}, {"measurement": "IC50", "setting": "[3]; IC50(μmol/L) PDE3, human recombinant PDE3Acat", "result": "> 10", "unit": "µmol/L"}, {"measurement": "IC50", "setting": "PDE10A1", "result": "1 to 10", "unit": "µmol/L"}]}
